In paper PMC11890061 (2025):

Legend:
[1] = test system: FAM-D-(UG)12 (RNA, G4) UGUGUGUGUGUGUGUGUGUGUGUG; assay: EMSA competition; details: 150 mM KCl, 1 mM MgCl2; 25 mM Tris-HCl pH 7.5, 37 °C; 250 nM L-apt3.1 (L-RNA aptamer) displaced; 10 nM RNA
[2] = test system: FAM-D-(UG)12 mut1 (RNA, single strand) UGUAUGUGUAUGUGUAUGUGUAUG; assay: NMM staining of native gel; details: 150 mM KCl (gel: 50 mM potassium acetate); 10 mM Tris-HCl pH 7.5; 2.5 μM oligo; 1 μg/mL NMM highest tested; no band
[3] = test system: FAM-D-(UG)12 mut2 (RNA, single strand) UGUGCGUGUGCGUGUGCGUGUGCG; assay: NMM staining of native gel; details: 150 mM KCl (gel: 50 mM potassium acetate); 10 mM Tris-HCl pH 7.5; 2.5 μM oligo; 1 μg/mL NMM highest tested; no band
[4] = test system: FAM-D-(TG)12 (DNA, single strand) TGTGTGTGTGTGTGTGTGTGTGTG; assay: NMM staining of native gel; details: 150 mM KCl (gel: 50 mM potassium acetate); 10 mM Tris-HCl pH 7.5; 2.5 μM oligo; 1 μg/mL NMM highest tested; no band
[5] = test system: D-apt3.1 (RNA, aptamer) GCCGCACUGGUGGGUCGGUGGGAAGCGGC; assay: ligand fluorescence enhancement; details: 150 mM KCl; 10 mM LiCaco pH 7.0; 1 μM RNA, 1 μM ligand; higher in K+ than Li+
[6] = test system: L-apt3.1 (L-RNA, aptamer, all L-ribonucleotides) GCCGCACUGGUGGGUCGGUGGGAAGCGGC; assay: ligand fluorescence enhancement; details: 150 mM KCl; 10 mM LiCaco pH 7.0; 1 μM RNA, 1 μM ligand; higher in K+ than Li+
[7] = test system: D-apt3.1b (RNA, aptamer) GCCGCACUUCUGGGGGGGUGGGAAGCGGC; assay: ligand fluorescence enhancement; details: 150 mM KCl; 10 mM LiCaco pH 7.0; 1 μM RNA, 1 μM ligand; higher in K+ than Li+
[8] = test system: D-apt3.1e (RNA, aptamer) GCCGCAAUGGUGGGUAGGUGGGAAGCGGC; assay: ligand fluorescence enhancement; details: 150 mM KCl; 10 mM LiCaco pH 7.0; 1 μM RNA, 1 μM ligand; higher in K+ than Li+
[9] = test system: D-apt3.1g (RNA, aptamer) GCCGCACUGGCGGGUCGGUGGGAAGCGGC; assay: ligand fluorescence enhancement; details: 150 mM KCl; 10 mM LiCaco pH 7.0; 1 μM RNA, 1 μM ligand; higher in K+ than Li+
[10] = test system: D-apt3.1h (RNA, aptamer) GCCGCACUGGUGGGUCGGUGGGGAGCGGC; assay: ligand fluorescence enhancement; details: 150 mM KCl; 10 mM LiCaco pH 7.0; 1 μM RNA, 1 μM ligand; higher in K+ than Li+
[11] = test system: D-apt3.1i (RNA, aptamer) GCCGCACUGGUGGGUCGGUGGGAGGCGGC; assay: ligand fluorescence enhancement; details: 150 mM KCl; 10 mM LiCaco pH 7.0; 1 μM RNA, 1 μM ligand; higher in K+ than Li+
[12] = test system: D-(UG)12 (RNA, G4) UGUGUGUGUGUGUGUGUGUGUGUG; assay: fluorescence titration (microplate reader); details: 150 mM KCl, 1 mM MgCl2; 25 mM Tris-HCl pH 7.5, 37 °C; 100 nM NMM, RNA varied; one-site fit

Row | IC50 [1] | binding [2] | binding [3] | binding [4] | binding [5] | binding [6] | binding [7] | binding [8] | binding [9] | binding [10] | binding [11] | Kd [12] | Compound
1 | 10.7 ± 1.1 µM | no | no | no | yes | yes | yes | yes | yes | yes | yes | 0.3774 ± 0.1006 µM | CCc1c(C)c2cc3nc(cc4nc(cc5c(CC)c(C)c(cc1[nH]2)n5C)C(C)=C4CCC(=O)O)C(CCC(=O)O)=C3C
2 | – | – | – | – | yes | yes | – | – | – | – | – | – | Cc1ccc2c(c1)sc(-c1ccc(N(C)C)cc1)[n+]2C
